Assay results as given in publication PMC11258189, “Estrogenic, androgenic, and genotoxic activities of zearalenone and deoxynivalenol in in vitro bioassays including exogenous metabolic activation” (Mycotoxin Research, 2024).
Like-named read-outs stand apart in the source and are kept apart here.

Key:
[1] = system: estrogen receptor (ER); type: cell-based, human
[2] = biological target: T1, human androgen receptor (Homo sapiens, UniProt P10275); type: cell-based
T1 construct: host or cells: Chinese hamster ovary (CHO) cells, AR-EcoScreen GR KO M1, stably transfected, glucocorticoid receptor knocked out
T1 sequence (P10275 1-920): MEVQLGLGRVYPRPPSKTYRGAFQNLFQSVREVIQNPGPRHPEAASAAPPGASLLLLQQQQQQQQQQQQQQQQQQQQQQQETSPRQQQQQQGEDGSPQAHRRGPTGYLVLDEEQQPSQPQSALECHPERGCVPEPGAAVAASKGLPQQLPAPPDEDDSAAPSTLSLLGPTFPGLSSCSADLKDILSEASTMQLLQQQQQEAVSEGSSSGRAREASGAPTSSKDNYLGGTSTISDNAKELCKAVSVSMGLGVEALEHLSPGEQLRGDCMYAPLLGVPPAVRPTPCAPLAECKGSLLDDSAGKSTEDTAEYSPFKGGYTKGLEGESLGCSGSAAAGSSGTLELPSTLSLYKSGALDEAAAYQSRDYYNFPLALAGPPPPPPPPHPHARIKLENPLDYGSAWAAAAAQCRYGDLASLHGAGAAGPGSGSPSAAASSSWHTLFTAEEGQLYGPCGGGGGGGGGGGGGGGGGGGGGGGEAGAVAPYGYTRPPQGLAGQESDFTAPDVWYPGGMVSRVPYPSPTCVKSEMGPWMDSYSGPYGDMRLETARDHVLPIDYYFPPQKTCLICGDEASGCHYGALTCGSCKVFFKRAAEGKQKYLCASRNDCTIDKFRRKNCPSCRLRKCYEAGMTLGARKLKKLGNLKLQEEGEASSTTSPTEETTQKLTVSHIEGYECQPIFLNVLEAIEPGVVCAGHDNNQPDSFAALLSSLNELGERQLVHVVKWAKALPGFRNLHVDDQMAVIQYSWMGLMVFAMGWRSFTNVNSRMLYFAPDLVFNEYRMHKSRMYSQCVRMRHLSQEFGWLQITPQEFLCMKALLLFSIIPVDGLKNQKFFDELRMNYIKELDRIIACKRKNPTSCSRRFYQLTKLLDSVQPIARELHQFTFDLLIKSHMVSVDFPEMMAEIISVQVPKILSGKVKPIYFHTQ

[3] = biological target: T1, human androgen receptor; type: cell-based; remark: listed apart in the source
[4] = system: estrogen receptor (ER)
[5] = system: TK6 cells
[6] = system: TK6 cells; design: method as in Takakura et al. [2014]; details: concentrations below 12.5 µM, 3 h of treatment, with or without human and rat liver S9; ref Takakura et al. [2014]; cited from earlier work
[7] = DON compounds, S9 + PHI + PHII cofactors, [95% CI]
[8] = DON compounds, S9 + PHII cofactors, [95% CI]
[9] = DON compounds, S9 alone, [95% CI]
[10] = DON compounds, no MAS, [95% CI]
[11] = without exogenous MAS, initial concentration-range finding trials, 24 h
[12] = DON compounds, S9 + PHI + PHII cofactors
[13] = DON compounds, S9 + PHII cofactors

CC1=C[C@H]2O[C@@H]3[C@H](O)C[C@](C)([C@@]2(CO)[C@H](O)C1=O)[C@]31CO1 [DON, deoxynivalenol]
ER antagonism IC30 [1, 7]: 0.37 [0.25,0.58] µM | ER antagonism IC30 [1, 8]: 0.25 [0.18,0.38] µM | ER antagonism IC30 [1, 9]: 0.75 [0.54,1.05] µM | ER antagonism IC30 [1, 10]: 0.81 [0.69,1.00] µM | ER antagonism IC30 [1, 11]: 0.91 µM | AR agonism EC10 [2, 7]: 0.45 [0.39,0.52] µM | AR agonism EC10 [2, 8]: 0.38 [0.32,0.46] µM | AR agonism EC10 [2, 9]: 0.84 [0.72,0.98] µM | AR agonism EC10 [2, 10]: 0.87 [0.81,0.93] µM | AR agonism EC10 [2, 11]: 0.83 µM | AR antagonism IC30 [3, 12]: <LOD | AR antagonism IC30 [3, 13]: <LOD | AR antagonism IC30 ([3]; DON compounds, S9 alone): <LOD | AR antagonism IC30 ([3]; DON compounds, no MAS): <LOD | AR antagonism IC30 [3, 11]: <LOD | ER agonism EC10 [4, 12]: <LOD | ER agonism EC10 [4, 13]: <LOD | ER agonism EC10 [4, 9]: <LOD | ER agonism EC10 [4, 10]: <LOD | ER agonism EC10 [4, 11]: <LOD | Micronuclei formation (% MN) versus vehicle controls ([5]; 5 h exposure, alone, with S9 alone or S9 with cofactors, ZEN 6.25 and 12.50 µM, DON 0.78 and 1.56 µM): neither ZEN nor DON alone or with the S9 alone or with cofactors had any statistically significant effect on % MN | Micronuclei formation (% MN) versus vehicle control ([5]; 24 h continuous exposure, without MAS, non-cytotoxic test concentrations): No statistically significant increases in % MN | MN formations [6]: did not induce any significant MN formations
